Results from the supplement of paper PMC4862054.

Tests used:
Test in all cases: drug sensitivity score (DSS), CellTiter-Glo (DSS (AUC-based score)); higher = stronger drug effect (viability inhibition or cytotoxicity); extreme values may be limits of the assay
Details in all cases: incubation time: 72 h
[1] = system: CAL-120
Summary of the method: (§1)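 The drug sensitivity score reflects the area under a fitted dose-response curve. To obtain it, breast cancer cells in 20 µl suspension were seeded into 384-well plates containing compound at 5 concentrations, 10-fold apart over a compound-specific 10,000-fold range, and incubated 72 h. CellTox Green fluorescence (485/520 nm) was read first and CellTiter-Glo luminescence second, after 10 min at room temperature. Each plate was normalised to 0.1 % DMSO and a positive kill control.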

[2] = system: MFM-223
Summary of the method: as §1

[3] = system: MDA-MB-468
Summary of the method: as §1

[4] = system: MDA-MB-453
Summary of the method: as §1

[5] = system: MDA-MB-436
Summary of the method: as §1

[6] = system: HCC1599
Summary of the method: as §1

[7] = system: HDQ-P1
Summary of the method: as §1

[8] = system: CAL-51
Summary of the method: as §1

| SMILES | drug sensitivity score [1] | drug sensitivity score [2] | drug sensitivity score [3] | drug sensitivity score [4] | drug sensitivity score [5] | drug sensitivity score [6] | drug sensitivity score [7] | drug sensitivity score [8] |
| --- | --- | --- | --- | --- | --- | --- | --- | --- |
| CC(C)(C)Cn1c(N)nc2ccc(-c3[nH]c(C(C)(C)C)nc3-c3ccc(F)cc3)nc21 | 0.0489 | 1.18 | 2.74 | 1.72 | 0 | 0 | 0 | 0 |
| C[C@]12C=CC(=O)C=C1CC[C@@H]1[C@@H]2C(=O)C[C@@]2(C)[C@H]1CC[C@]2(O)C(=O)CO [Prednisone] | 0.925 | 0 | 0 | 0 | 0 | 0 | 0 | 0 |
| O=NN(CCCl)C(=O)NC1CCCCC1 [Lomustine] | 0 | 0 | 0 | 0 | 0 | 0 | 0 | 0 |
| CCCCCOC(=O)Nc1nc(=O)n([C@@H]2O[C@H](C)[C@@H](O)[C@H]2O)cc1F [Capecitabine] | 0 | 0 | 0 | 0 | 0.812 | 0 | 0 | 0 |
| C[C@@H]1C[C@H]2[C@@H]3CCC4=CC(=O)C=C[C@]4(C)[C@@]3(F)[C@@H](O)C[C@]2(C)[C@@]1(O)C(=O)CO [Dexamethasone] | 10.1 | 0 | 0 | 4 | 0 | 0 | 4.16 | 0 |
| CC(C)NC[C@@H](C(=O)N1CCN(c2ncnc3c2[C@H](C)C[C@H]3O)CC1)c1ccc(Cl)cc1 [GDC-0068] | 3.43 | 16.6 | 8.65 | 10.4 | 1.1 | 0 | 7.19 | 8.39 |
| CCN(CC)CCOc1ccc(C(=C(Cl)c2ccccc2)c2ccccc2)cc1 [Clomifene] | 0 | 2.2 | 0 | 5.37 | 0 | 6.16 | 0 | 0 |
| CN1CCc2c(c3ccccc3n2Cc2ccc(C(=O)NO)cc2)C1 [Tubastatin A] | 0 | 0 | 0 | 0 | 0 | 0 | 0 | 11.2 |
| NC1(c2ccc(-c3nc4ccn5c(=O)[nH]nc5c4cc3-c3ccccc3)cc2)CCC1 [MK-2206] | 0 | 1.78 | 0.936 | 5.41 | 0 | 0 | 0 | 0 |
| CC/C(=C(\c1ccccc1)c1ccc(OCCN(C)C)cc1)c1ccccc1 [Tamoxifen] | 0.0022 | 1.68 | 0 | 5.28 | 0 | 0 | 0 | 4.03 |
| N[C@@H](Cc1ccc(N(CCCl)CCCl)cc1)C(=O)O [Melphalan] | 11.5 | 19.3 | 21.5 | 21.3 | 16.6 | 17.2 | 19.5 | 21.3 |
| COc1cc2c(Oc3ccc(NC(=O)C4(C(=O)Nc5ccc(F)cc5)CC4)cc3F)ccnc2cc1OCCCN1CCOCC1 [Foretinib] | 2.45 | 6.22 | 1.64 | 0 | 0.456 | 0 | 0 | 1.01 |
| Cc1c(C(=O)Nc2ccc(N3C[C@@H](C)O[C@@H](C)C3)nc2)cccc1-c1ccc(OC(F)(F)F)cc1 [Erismodegib] | 0 | 1.41 | 1.28 | 0 | 2.73 | 0 | 0.664 | 4.99 |
| CN1CCN(c2nc(C3=C(c4c[nH]c5ccccc45)C(=O)NC3=O)c3ccccc3n2)CC1 [Sotrastaurin] | 0 | 0 | 0 | 0 | 0 | 0 | 0.186 | 0 |
| CCc1cnn2c(NCc3ccc[n+]([O-])c3)cc(N3CCCC[C@H]3CCO)nc12 [Dinaciclib] | 13.6 | 17.8 | 18.3 | 16 | 20.7 | 19.8 | 18.2 | 20.6 |
| CO[C@H](C(=O)[C@@H](O)[C@@H](C)O)[C@@H]1Cc2cc3cc(O[C@H]4C[C@@H](O[C@@H]5C[C@@H](O)[C@H](O)[C@@H](C)O5)[C@H](O)[C@@H](C)O4)c(C)c(O)c3c(O)c2C(=O)[C@H]1O[C@H]1C[C@@H](O[C@@H]2C[C@@H](O)[C@@H](O[C@@H]3C[C@](C)(O)[C@H](O)[C@@H](C)O3)[C@@H](C)O2)[C@H](O)[C@@H](C)O1 [Plicamycin] | 2.12 | 1.97 | 6.69 | 3.11 | 2.49 | 3.99 | 2.83 | 18.2 |
